Measured values published in patent US20160368943A1, “SUBSTITUTED PURINE COMPOUNDS” (EPIZYME, INC., priority 2013, published 2016).
Several values for one entry are separate records, joined by “and”; a condition that tells them apart may be missing. Identical values can stand only once. Like-named read-outs stand apart in the source and are kept apart here.

Tests used:
[1] = Pharmacokinetic study in rat; assay type: in vivo, Sprague-Dawley rat
Protocol: In the IV bolus study, 1 mg/kg doses prepared in 0.4% HPBCD in saline were administered via foot dorsal vein injection. At each timepoint, 150 μL of blood was collected via tail vein into EDTA-K2 tubes. The blood samples were maintained in wet ice initially and centrifuged to obtain plasma (2000 g, 4° C., 5 minutes) within 15 minutes post sampling. In the PO study, doses prepared in 10% Ethanol:5% Solutol HS15:85% (5% of dextrose in water) were administered by oral gavage. Samples were collected as described above. In the IV infusion study, doses were prepared in 10% PEG400 in 0.9% saline and administered into the femoral vein, at a dose of 4.7 mg/kg/day for 7 days. 500 μL of blood was collected by jugular venipuncture at timepoints over 7 days and placed on crushed wet ice until centrifugation, which was carried out as soon as practical. The samples were centrifuged for 10 minutes at 4° C. at 2700 rpm. The resultant plasma was separated and frozen immediately over dry ice for LC-MS/MS analysis. […] Typically, samples were injected onto an LC-MS/MS system using a Waters BEH Phenyl column. The aqueous mobile phase was water with 0.1% NH4OH (A), and the organic mobile phase was acetonitrile with 0.1% NH4OH (B). The gradient was as follows: 37% B for the first 0.2 min, increased to 44% B from 0.2 to 0.6 min, maintained at 44% B for 0.5 min, and decreased to 37% B within 0.05 min. The injection volume was 2 uL, and the total run time was 1.5 min with a flow rate of 0.6 mL/min. […] The ionization was conducted in the positive ion mode using the MRM transition [M+H]+m/z 563.5 parent ion to m/z 326.3 daughter ion, incorporating a turbo-ionspray interface. Eight to ten calibration standards were prepared in blank plasma of the relevant species providing a typical standard curve concentration range of 5-500 ng/mL. Pharmacokinetic parameters were calculated by noncompartmental methods using WinNonlin (version 5.3; Pharsight, St. Louis, Mo.). Parameters are presented as mean±S.D.

[2] = Plasma protein binding by equilibrium dialysis, human; assay type: in vitro ADME; conditions: both sexes, pH 7.4, read-out: Plasma free fraction
Protocol: Plasma protein binding was assessed by equilibrium dialysis, utilizing the HT-dialysis cell format with a cellulose semi permeable membrane (molecular weight cut off of 5000 Da). Plasma was warmed to 37° C. and adjusted to pH 7.4 before use. Male Sprague-Dawley rat, male Beagle dog, male CD-1 mouse and mixed sex human plasma was used for the studies. A 5 μM test compound solution was prepared in isotonic phosphate buffer and rat, dog, mouse and human plasma (final DMSO concentration of 0.5%). The plasma-containing solution was introduced to one side of the membrane, and the plasma-free on the other. Incubations were performed for 2-16 hours in duplicate in order to allow the compound to reach equilibrium. Haloperidol was included as the control compound for each species. At the end of the equilibration time the cells were emptied. Following protein precipitation, the samples were centrifuged and analyzed by LC-MS/MS. The samples from the protein containing compartment were quantified using calibration standards prepared in plasma and the protein free compartments were quantified using calibration standards prepared in dialysis buffer.

[3] = Prediction of human pharmacokinetics by interspecies scaling
From the text: PK endpoints of CL and VDss in mouse, rat and dog were used to scale to the corresponding parameters in human using a variety of allometric and interspecies scaling approaches as previously reported (Boxenbaum, Journal of Pharmacokinetics and Biopharmaceutics 10(2): 201-227, 1982; Jones et al., Journal of Pharmaceutical Sciences 100(10): 4074-4089, 2011; Lombardo et al., J Clin Pharmacol 53(2): 178-191, 2013a; Lombardo et al., J Clin Pharmacol 53(2): 167-177, 2013b; Mahmood & Balian, Xenobiotica 26(9): 887-895, 1996; Ring et al., Journal of Pharmaceutical Sciences 100(10): 4090-4110, 2011; Tang & Mayersohn, Journal of Pharmaceutical Sciences 95(8): 1783-1799, 2006; Tang & Mayersohn, Drug Metabolism and Disposition 33(9): 1297-1303, 2005; Vuppugalla et al., Journal of Pharmaceutical Sciences 100(10): 4111-4126, 2011). The likely predictive accuracy of each method was assessed based on visual inspection of the data fit, as well as values such as the R^2 and the allometric exponent, where appropriate.

[4] = Metabolite profiling in liver microsomes with NADPH and UDPGA, human; assay type: in vitro ADME; conditions: Compound A 10 μM, 20 min
Protocol: Compound A was incubated with liver microsomes of various species (mouse, rat, dog or human). […] For all liver microsomal incubations, samples were taken at 0 and 20 minutes. All samples were quenched by using acetonitrile/methanol solution and analyzed using an LC-MS/MS Q-Trap system (AB Sciex, Framingham, Mass.).
The corresponding product ion tandem mass spectra of Compound A and its metabolites were obtained by using enhanced product ion (EPI) scans during positive ion electrospray. The possible chemical structures of the metabolites were deduced based on their MS1 and MS2 spectra.

[5] = male, Sprague-Dawley, plasma, SD rat, IV bolus, 1 mg/kg
[6] = male, Sprague-Dawley, plasma, SD rat, IV infusion, 4.7 mg/kg/day for 7 days
[7] = male, Sprague-Dawley, plasma, SD rat, PO, 10 mg/kg

Which CL ([1]; SD rat, IV bolus, 1 mg/kg) does the source give for CC(C)N(C[C@H]1O[C@@H](n2cnc3c(N)ncnc32)[C@H](O)[C@@H]1O)[C@H]1C[C@@H](CCc2nc3cc(C(C)(C)C)ccc3[nH]2)C1 [Compound A, (2R,3R,4S,5R)-2-(6-amino-9H-purin-9-yl)-5-((((1r,3S)-3-(2-(5-(tert-butyl)-1H-benzo[d]imidazol-2-yl)ethyl)cyclobutyl)(isopropyl)amino)methyl)tetrahydrofuran-3,4-diol] here?
The CL was 67.8 ± 5.3 mL/min/kg.

And the t1/2 ([1]; SD rat, IV bolus, 1 mg/kg)?
Its t1/2 is 224 ± 61.8 min.

And the “time to steady state” value ([1]; SD rat, IV infusion, 4.7 mg/kg/day)?
The value was ≤ 1 h.

What about the F ([1]; SD rat, PO, 10 mg/kg) of the same compound?
The F was <1%.

And the AUC(0-inf) [1, 5]?
The AUC(0-inf) was 0.44 ± 0.03 µM·h.

What about the AUC(0-t) [1, 5] of the same compound?
Its AUC(0-t) is 0.43 ± 0.03 µM·h.

What about the Cmax [1, 5] of the same compound?
Its Cmax is 2040 ± 230 nM.

What about the MRT [1, 5] of the same compound?
The MRT was 24.6 ± 6 min.

What about the Tmax [1, 5] of the same compound?
The Tmax was 3 min.

What about the AUC(0-inf) [1, 6] of the same compound?
The AUC(0-inf) was 12.5 µM·h.

And the AUC(0-t) [1, 6]?
Its AUC(0-t) is 12.5 µM·h.

What about the Cmax [1, 6] of the same compound?
Its Cmax is 130 nM.

And the Tmax [1, 6]?
Its Tmax is 240 min.

And the concentration at 7 days ([1]; male, Sprague-Dawley, plasma, SD rat, IV infusion, 4.7 mg/kg/day for 7 days, read-out: average steady state concentration)?
Its concentration at 7 days is 78 nM.

And the Cmax [1, 7]?
The Cmax was 0.7 nM.

What about the Tmax [1, 7] of the same compound?
Its Tmax is 15 min.

What about the half-life ([1]; male, Sprague-Dawley, rat, plasma, iv, 1 mg/kg, SD rat, IV bolus) of the same compound?
Its half-life is 222 min.

And the clearance ([1]; male, Sprague-Dawley, rat, plasma, iv, 1 mg/kg, SD rat, IV bolus, 1 mg/kg, read-out: CL)?
The clearance was 68 mL/min/kg.

And the Vd ([1]; male, Sprague-Dawley, rat, plasma, iv, 1 mg/kg, SD rat, IV bolus, 1 mg/kg, read-out: VDss)?
The Vd was 1.66 L/kg.

What about the Vd ([1]; male, Sprague-Dawley, rat, plasma, iv, 1 mg/kg, rat, read-out: Unbound VDss) of the same compound?
The Vd was 6.1 L/kg.

What about the clearance ([1]; male, Sprague-Dawley, rat, plasma, iv, 4.7 mg/kg/day, SD rat, IV infusion, 4.7 mg/kg/day, Css 78 nM, read-out: CL estimate from IV infusion (dose rate divided by Css)) of the same compound?
The clearance was 74 mL/min/kg.

And the “oral bioavailability (in words)” value ([1]; rat, PO)?
Its value is “low and negligible”.

What about the fraction unbound at 5 μM [2] of the same compound?
The fraction unbound at 5 μM was 0.125.

And the “Predicted human VDss” value ([3]; Consensus prediction)?
The value was 2.8 L/kg and 2.76 L/kg.

And the “Predicted human CL” value ([3]; Consensus prediction (excludes simple allometry))?
The value was 6.5 mL/min/kg.

And the “Predicted human CL” value ([3]; MLR rat-dog)?
The value was 11 mL/min/kg and 10.7 mL/min/kg.

And the “Predicted human VDss” value ([3]; Oie-Tozer equation, rat and dog data)?
Its value is 0.97 L/kg.

What about the “Predicted human CL” value ([3]; Simple allometry) of the same compound?
Its value is 13.3 mL/min/kg.

What about the “Predicted human VDss” value ([3]; Simple allometry) of the same compound?
The value was 2.71 L/kg.

And the “allometric exponent for CL” value ([3]; Simple allometry)?
Its value is 0.76.

And the “Predicted human VDss” value ([3]; Simple allometry - unbound)?
The value was 1.16 L/kg.

And the “Predicted human VDss” value ([3]; Wajima equation, rat and dog data)?
The value was 6.2 L/kg.

What about the “human CL estimates” value ([3]; across multiple, diverse scaling approaches) of the same compound?
The value was 6 to 8 mL/min/kg.

What about the “Predicted human VDss” value ([3]; simple allometry (total and unbound) and Oie-Tozer equation) of the same compound?
The value was 1 to 3 L/kg.

What about the “Predicted human VDss” value ([3]; simple allometry using total and unbound terms) of the same compound?
Its value is 1.2 to 2.7 L/kg.

And the “Abundance based on UV spectra” value [4]?
The value was 59%.
